Source: US20210386367A1, “DEVICES AND SYSTEMS FOR GASTROINTESTINAL MICROBIOME DETECTION AND MANIPULATION” (Progenity, Inc., priority 2018, published 2021)
Values after ≈ are worked out from the molar mass of the structure shown. Like-named read-outs stand apart in the source and are kept apart here.

Columns and labels:
[1] = test system: Veillonella spp. clinical isolates; experiment: MIC distribution against clinical isolates; assay type: cell-based; conditions: 30 Veillonella spp. isolates
Text: (n=19 V. parvula, n=9 Veillonella spp., n=1 Veillonella dispr., n=1 V. atypica) clinical isolates (μg/mL).
As used herein, “minimum inhibitory concentration” or “MIC” refers to the lowest concentration of an antimicrobial agent, for example, an antimicrobial agent as described herein, required to inhibit the growth of an organism. […] “MIC90” represents the MIC value at which ≥90% of the strains within a test population are inhibited; the 90th percentile.
Many susceptibility testing methods are known in the art and can be used as described herein (see, e.g., Jorgensen and Ferraro (2009) Clinical Infectious Diseases 49:1749-1755; and Maurer et al. (2017) Infectious Disease Reports 9:6839; the entire contents of each of the foregoing are incorporated herein by reference). For example, antimicrobial susceptibility can be determined using conventional culture based methods such as the broth or agar dilution test. In these dilution tests, the bacterial isolate of interest is inoculated onto different media that include serial dilutions of an antimicrobial agent, and incubated under appropriate conditions (e.g., overnight at 37° C.) to allow for growth to occur. Following the incubation period, the media is examined to determine bacterial growth. The lowest concentration of antibiotic that prevents growth represents the minimal inhibitory concentration (MIC). Broth dilution tests can be miniaturized and mechanized allowing for reproducibility and high throughput.

Clostridium spp. = experiment: Agar dilution MIC, 10 clinical isolates; assay type: cell-based; conditions: for Mode: modal MIC
[2] = test system: Bacteroides spp. spontaneous mutants; experiment: Broth microdilution MIC of spontaneous mutants; assay type: cell-based
Procedure: Select isolates were subcultured onto agar containing drug at the selection concentration, were identified by MALDI, and were frozen for broth microdilution MIC testing as described below.
To determine whether colonies growing on drug selection plates had elevated MIC values to the selecting antibiotic, susceptibility testing by broth microdilution was conducted on isolated mutants following methodology recommended by CLSI (1), (2), and (3) “Performance Standards for Antimicrobial Susceptibility Testing; Twenty-Eighth Informational Supplement.,” CLSI document M100-S28, 2018.
All wells in columns 2 through 12 of a standard 96-well microdilution plate (Costar 3795) were filled with 150 μL of the appropriate diluent. Then, 300 μL of the test agents were added to the wells of column 1 of the plates at […] the highest final concentration to be tested. Serial two-fold dilutions were made across the rows through column 11 using the Biomek 2000. The wells of column 12 contained no drug and served as the growth control wells. This plate served as the “mother plate” from which selected MIC assay plates or “daughter plates” were made.
Daughter plates for anaerobic organisms were transferred to a Bactron II anaerobic chamber (Sheldon Manufacturing Inc., Cornelius, Oreg.) to reduce for 1 hour prior to inoculation. The inoculum for each organism was prepared in the anaerobic chamber and dispensed into sterile disposable reservoirs. Inoculation was completed using a multichannel pipette to transfer 10 μL of the inoculum into each well of the daughter plate. This yielded a final cell concentration in the daughter plates of approximately 1×10^6 CFU/mL.

E. coli ATCC 25922 = experiment: Broth microdilution MIC (time-kill study); assay type: cell-based, Escherichia coli
[3] = test system: E. coli ATCC 35218 (TEM-1 β-lactamase producer); experiment: Broth microdilution MIC (time-kill study); assay type: cell-based, Escherichia coli
E. coli MMX 1312 = experiment: Broth microdilution MIC (time-kill study); assay type: cell-based, Escherichia coli
S. pneumoniae ATCC 49619 [4] = experiment: Broth microdilution MIC (time-kill study); assay type: cell-based, Streptococcus pneumoniae
S. agalactiae ATCC 13813 = experiment: Broth microdilution MIC (time-kill study); assay type: cell-based, Streptococcus agalactiae
B. vulgatus ATCC 8482 = experiment: Broth microdilution MIC (time-kill study); assay type: cell-based, Bacteroides vulgatus
S. pneumoniae ATCC 49619 [5] = experiment: Time-kill assay; assay type: cell-based, Streptococcus pneumoniae
S. pyogenes ATCC 49399 = experiment: Time-kill assay; assay type: cell-based, Streptococcus pyogenes; conditions: 2×, 4×, 8× MIC; 2, 6, 24 hr
[6] = test system: Bacteroides spp. (B. fragilis ATCC 25285, B. vulgatus, B. ovatus MMX 3503); experiment: Agar dilution MIC (spontaneous mutation study; strain in conditions); assay type: cell-based
[7] = test system: Streptococcus spp. spontaneous mutants; conditions: S. pneumoniae ATCC 49619; CLSI QC range shown in parentheses; cited from earlier work
[8] = 10 Clostridium spp. clinical isolates
[9] = B. fragilis ATCC 25285, selected on rifaximin 4X MIC, Colony A
[10] = B. fragilis ATCC 25285, selected on rifaximin 4X MIC, Colony B
[11] = B. fragilis ATCC 25285, selected on rifaximin 8X MIC, Colony A
[12] = B. fragilis ATCC 25285, selected on rifaximin 8X MIC, Colony B
[13] = B. ovatus MMX 3503, selected on rifaximin 4X MIC, Colony A
[14] = B. ovatus MMX 3503, selected on rifaximin 4X MIC, Colony B
[15] = B. ovatus MMX 3503, selected on rifaximin 8X MIC, Colony A
[16] = B. ovatus MMX 3503, selected on rifaximin 8X MIC, Colony B
[17] = B. vulgatus ATCC 8482, selected on ceftriaxone 4X MIC, Colony A
[18] = B. vulgatus ATCC 8482, selected on ceftriaxone 4X MIC, Colony B
[19] = B. vulgatus ATCC 8482, selected on rifaximin 4X MIC, Colony A
[20] = B. vulgatus ATCC 8482, selected on rifaximin 4X MIC, Colony B
[21] = B. vulgatus ATCC 8482, selected on rifaximin 8X MIC, Colony A
[22] = B. vulgatus ATCC 8482, selected on rifaximin 8X MIC, Colony B
[23] = B. vulgatus ATCC 8482 Parent (Table 50)
[24] = B. vulgatus ATCC 8482 Parent (Table 54)
[25] = S. agalacttae ATCC 13813 (so in the source)

Cc1ncc([N+](=O)[O-])n1CCO [MTZ]
Cumulative percentage of isolates inhibited at MIC ([1]; MIC 1 μg/mL): 3.3% | Number of test isolates at MIC ([1]; MIC 1 μg/mL): 1 | Cumulative percentage of isolates inhibited at MIC ([1]; MIC 2 μg/mL): 33.3% | Number of test isolates at MIC ([1]; MIC 2 μg/mL): 9 | Cumulative percentage of isolates inhibited at MIC ([1]; MIC 4 μg/mL): 83.3% | Number of test isolates at MIC ([1]; MIC 4 μg/mL): 15 | Cumulative percentage of isolates inhibited at MIC ([1]; MIC >32 μg/mL): 100.0% | Number of test isolates at MIC ([1]; MIC >32 μg/mL): 5 | % S (Clostridium spp.; [8]): 100% | MIC50 (Clostridium spp.; [8]): 1 µg/mL (≈ 5.84 µM) | MIC90 (Clostridium spp.; [8]): 1 µg/mL (≈ 5.84 µM) | MIC range (Clostridium spp.; [8]): 0.12 to 2 µg/mL | Mode (Clostridium spp.; [8]): 1 µg/mL | MIC [2, 9]: 0.25 µg/mL | MIC [2, 10]: 0.5 µg/mL | MIC [2, 11]: 0.5 µg/mL | MIC [2, 12]: 0.25 µg/mL | MIC ([2]; B. fragilis ATCC 25285 Parent): 0.25 µg/mL | MIC [2, 13]: 2 µg/mL | MIC [2, 14]: 0.5 µg/mL | MIC [2, 15]: 1 µg/mL | MIC [2, 16]: 2 µg/mL | MIC ([2]; B. ovatus MMX 3503 Parent): 0.5 µg/mL | MIC [2, 17]: 1 µg/mL | MIC [2, 18]: 1 µg/mL | MIC [2, 19]: 1 µg/mL | MIC [2, 20]: 1 µg/mL | MIC [2, 21]: 1 µg/mL | MIC [2, 22]: 1 µg/mL | MIC [2, 23]: 1 µg/mL | MIC [2, 24]: 1 µg/mL

CO[C@H]1/C=C/O[C@@]2(C)Oc3c(C)c(O)c4c(O)c(c5c(nc6cc(C)ccn65)c4c3C2=O)NC(=O)/C(C)=C\C=C\[C@H](C)[C@H](O)[C@@H](C)[C@@H](O)[C@@H](C)[C@H](OC(C)=O)[C@@H]1C [rifaximin]
Cumulative percentage of isolates inhibited at MIC ([1]; MIC 1 μg/mL): 10.0% | Number of test isolates at MIC ([1]; MIC 1 μg/mL): 1 | Cumulative percentage of isolates inhibited at MIC ([1]; MIC 8 μg/mL): 93.3% | Number of test isolates at MIC ([1]; MIC 8 μg/mL): 7 | MIC50 (Clostridium spp.): > 64 µg/mL | MIC90 (Clostridium spp.): > 64 µg/mL | MIC50 (Clostridium spp.; [8]): >64 µg/mL | MIC90 (Clostridium spp.; [8]): >64 µg/mL | Mode (Clostridium spp.; [8]): >64 µg/mL | MIC (E. coli ATCC 25922; E. coli ATCC 25922): 8 µg/mL (≈ 10.2 µM) | MIC (E. coli ATCC 25922; broth microdilution): 8 µg/mL (≈ 10.2 µM) | MIC ([3]; E. coli ATCC 35218): 4 µg/mL (≈ 5.09 µM) | MIC ([3]; broth microdilution): 4 µg/mL (≈ 5.09 µM) | MIC (E. coli MMX 1312; E. coli MMX 1312): 8 µg/mL (≈ 10.2 µM) | MIC (E. coli MMX 1312; broth microdilution): 8 µg/mL (≈ 10.2 µM) | MIC (S. pneumoniae ATCC 49619 [4]; S. pneumoniae ATCC 49619): 0.06 µg/mL (≈ 0.0763 µM) | MIC (S. pneumoniae ATCC 49619 [4]; broth microdilution): 0.06 µg/mL (≈ 0.0763 µM) | MIC (S. agalactiae ATCC 13813; [25]): 0.25 µg/mL (≈ 0.318 µM) | MIC (S. agalactiae ATCC 13813; broth microdilution): 0.25 µg/mL (≈ 0.318 µM) | MIC (B. vulgatus ATCC 8482; B. vulgatus ATCC 8482): 0.25 µg/mL (≈ 0.318 µM) | MIC (B. vulgatus ATCC 8482; broth microdilution): 0.25 µg/mL (≈ 0.318 µM) | time-kill kinetics outcome (bactericidal = ≥3 log reduction in CFU per mL) (S. pneumoniae ATCC 49619 [5]; 2×, 4×, 8× MIC, 2, 6, 24 hr): rebounded to no-drug control levels at 24 hr | CFU decrease (S. pneumoniae ATCC 49619 [5]; all three concentrations, 6 hr timepoint): approximately 2.3 log10 CFU | time-kill kinetics outcome (bactericidal = ≥3 log reduction in CFU per mL) (S. pyogenes ATCC 49399): bacteriostatic effect against this organism at 2×, 4×, and 8× the MIC | Agar MIC ([6]; B. fragilis ATCC 25285): 0.25 µg/mL | Agar MIC ([6]; B. ovatus MMX 3503): 0.5 µg/mL | Agar MIC ([6]; B. vulgatus ATCC 8482): 0.12 µg/mL | MIC [2, 9]: >64 µg/mL | MIC [2, 10]: 64 µg/mL | MIC [2, 11]: >64 µg/mL | MIC [2, 12]: >64 µg/mL | MIC ([2]; B. fragilis ATCC 25285 Parent): 0.12 µg/mL | MIC [2, 13]: >64 µg/mL | MIC [2, 14]: >64 µg/mL | MIC [2, 15]: >64 µg/mL | MIC [2, 16]: >64 µg/mL | MIC ([2]; B. ovatus MMX 3503 Parent): 0.25 µg/mL | MIC [2, 17]: 0.06 µg/mL | MIC [2, 18]: 0.12 µg/mL | MIC [2, 19]: 32 µg/mL | MIC [2, 20]: 64 µg/mL | MIC [2, 21]: >64 µg/mL | MIC [2, 22]: >64 µg/mL | MIC [2, 23]: 0.06 µg/mL | MIC [2, 24]: 0.06 µg/mL | broth microdilution MIC of selected colonies relative to parent strain ([2]; colonies selected at 4× and 8× the MIC): several-fold higher

CN[C@H](CC(C)C)C(=O)N[C@H]1C(=O)N[C@@H](CC(N)=O)C(=O)N[C@H]2C(=O)N[C@H]3C(=O)N[C@H](C(=O)N[C@H](C(=O)O)c4cc(O)cc(O)c4-c4cc3ccc4O)[C@H](O)c3ccc(c(Cl)c3)Oc3cc2cc(c3O[C@@H]2O[C@H](CO)[C@@H](O)[C@H](O)[C@H]2O[C@H]2C[C@](C)(N)[C@H](O)[C@H](C)O2)Oc2ccc(cc2Cl)[C@H]1O [vancomycin, Vancomycin]
MIC (E. coli ATCC 25922; Escherichia coli, ATCC25922, E. coli ATCC 25922, read-out: MIC): > 16 µg/mL | MIC ([3]; Escherichia coli, ATCC35218, E. coli ATCC 35218, read-out: MIC): > 16 µg/mL | MIC (E. coli MMX 1312; Escherichia coli, MMX1312, E. coli MMX 1312, read-out: MIC): > 16 µg/mL | MIC (S. pneumoniae ATCC 49619 [4]; Streptococcus pneumoniae, ATCC49619, S. pneumoniae ATCC 49619, read-out: MIC): 0.25 µg/mL (≈ 0.173 µM) | MIC (S. agalactiae ATCC 13813; Streptococcus agalactiae, ATCC13813, S. agalacttae ATCC 13813 (so in the source), read-out: MIC): 0.5 µg/mL (≈ 0.345 µM) | MIC (B. vulgatus ATCC 8482; Phocaeicola vulgatus, ATCC8482, B. vulgatus ATCC 8482, read-out: MIC): > 16 µg/mL

Penicillin
MIC, CLSI QC range [7]: (0.06-0.25) μg/mL

piperacillin/tazobactam [piperacillin-tazobactam]
MIC (E. coli ATCC 25922; E. coli ATCC 25922): 4/4 | MIC ([3]; E. coli ATCC 35218): 2/4 | MIC (E. coli MMX 1312; E. coli MMX 1312): 16/4 | MIC (S. pneumoniae ATCC 49619 [4]; S. pneumoniae ATCC 49619): 1 µg/mL | MIC (S. agalactiae ATCC 13813; [25]): 0.06 µg/mL | MIC (B. vulgatus ATCC 8482; B. vulgatus ATCC 8482): 4 µg/mL
